Data taken from patent publication US20200376291A1, “PHOTOBIOMODULATION THERAPY TO DELAY DYSTROPHY PROGRESSION” (Multi Radiance Medical, priority 2017, published 2020).

How the values were obtained:
Format in all cases: in vivo
dystrophin = test: Dystrophin in tibialis anterior muscle of mdx mice by immunohistochemistry; settings: treated for 14 weeks from 6 weeks of age, prednisone 1.5 mg/kg per day, ibuprofen 25 mg/kg per day, PBMT 3 times a week, FIG. 18
Procedure: Mice were randomly divided into 7 different experimental groups: Wild Type (WT), Placebo-control (mdx mice), Prednisone (mdx mice), NSAID (mdx mice), […], and PBMT+NSAID (mdx mice). Prednisone (glucocorticoid) treatment was administered to animals daily with a dose of 1.5 mg/kg per day; NSAID treatment with ibuprofen was also administered to animals daily with a dose of 25 mg/kg per day. PBMT was performed employing a cluster probe (Multi Radiance Medical, Solon, Ohio) with 9 diodes (1 super-pulsed laser diode (905 nm), four LED diodes (875 nm), and 4 LED diodes (650 nm). PBMT was applied 3 times a week with direct contact to the animal's skin on hindlimb at a single point (tibialis anterior muscle—bilaterally). For combined treatments, each modality was applied as described previously. All treatments were performed during 14 weeks and started with animals at 6 weeks of age. The analysis consisted of muscle morphology, dystrophin through itntnunohistochetnistry and functional performance.

mdx mice [1] = test: Functional performance assessment in mdx mice; settings: treated for 14 weeks from 6 weeks of age, FIG. 19
Procedure: The PBMT was analyzed using a functional performance evaluation protocol. The functional performance evaluation protocol included the animal climbing stairs with the following dimensions (1×0.09 m, distance between the steps of 0.5 cm and)80° using the animal's body weight (the protocol began with the animal's familiarization, in two sessions with a 24-h interval between the sessions). The aim of the sessions was to teach the mouse to move up the steps and consisted of three repetitions to the top, with a 60 s interval to rest. If necessary, a clamp stimulus for the animal to start moving was applied. After this familiarization, the assessments were performed before the treatments begin and 24-h after the last treatment, in order to evaluate how many times each mouse was able to climb up the stairs until the animal came to fatigue. Fatigue was identified when the animal could no longer perform the activity.
(§1) Mice were randomly divided into 7 different experimental groups: Wild Type (WT), Placebo-control (mdx mice), Prednisone (mdx mice), NSAID (mdx mice), […], and PBMT+NSAID (mdx mice). Prednisone (glucocorticoid) treatment was administered to animals daily with a dose of 1.5 mg/kg per day; NSAID treatment with ibuprofen was also administered to animals daily with a dose of 25 mg/kg per day. […]

mdx mice [2] = test: Skeletal muscle tissue morphology (histological sections, HE) in mdx mice; settings: treated for 14 weeks from 6 weeks of age, tibialis anterior muscle, FIGS. 13-17
Procedure: The tibialis anterior muscles of the animal's hind paw were collected and stored in 10% buffered formalin for histological processing; then, hematoxylin and eosin staining was performed in a routine method. Slides were photographed, and the morphology of the skeletal striated muscle fibers was analyzed (Eclipse E-200; Nikon, Tokyo, Japan). Images of all groups were obtained using the 400x magnification. The images were presented with a similar photographic pattern.
as §1

Row | SMILES | dystrophin compared to the placebo-control group (dystrophin) | muscular function compared to the placebo-control group (mdx mice [1]) | morphological aspects of skeletal muscle (mdx mice [2])
1 | CC(C)Cc1ccc(C(C)C(=O)O)cc1 (stereo not shown) [NSAID, ibuprofen] | no significant increase in dystrophin |  | 
2 | C[C@]12C=CC(=O)C=C1CC[C@@H]1[C@@H]2C(=O)C[C@@]2(C)[C@H]1CC[C@]2(O)C(=O)CO [Prednisone] | increased dystrophin | improved muscular function | improvement in the morphological aspects of skeletal muscle
